According to patent US5281596A, “Antibacterial drugs for fish” (Bayer Aktiengesellschaft, priority 1986, dated 1994):
In brackets after ≈: the same amount, converted by molar mass. Structures can show the parent of a compound that is named as a salt. Where two headings read alike, the source gives them in different places.

Legend:
Experiment in all cases: In vitro antibacterial activity on pathogenic bacteria for fish (agar MIC, Test Example 1)
Assay type in all cases: cell-based
Aeromonas hydrophila = settings: 20 h; for MIC: Aeromonas hydrophila; for MIC (minimum growth-inhibition concentration): Mueller-Hinton agar
Procedure: (§1) In vitro antibacterial activity on pathogenic-bacteria for fish
(§2) Each of the test strains was cultured over-night, and each culture broth (containing about 10^6 cells/ml) was innoculated in Mueller-Hinton agar (DIFCO) supplied with 1.0-2.0% sodium chloride and containing the test compound at each specified concentration.

Pasteurella piscicida = settings: 20 h; for MIC: Photobacterium damselae; for MIC (minimum growth-inhibition concentration): Mueller-Hinton agar
Procedure: as §1, §2

Vibrio anguillarum = settings: 20 h, 25-30 °C; for MIC: Vibrio anguillarum, read-out: MIC (minimum growth-inhibition concentration); for MIC (minimum growth-inhibition concentration): Mueller-Hinton agar
Procedure: as §1, §2

[1] = Vibrio anguillarum strain NA8340, Mueller-Hinton agar
[2] = Vibrio anguillarum strain NA8341, Mueller-Hinton agar
[3] = Vibrio anguillarum strain NA8346, Mueller-Hinton agar
[4] = Vibrio anguillarum strain NA8347, Mueller-Hinton agar
[5] = Vibrio anguillarum strain NH8410, Mueller-Hinton agar
[6] = Aeromonas hydrophila strain C 44, 25-30 °C
[7] = Aeromonas hydrophila strain KA8301, 25-30 °C
[8] = Aeromonas hydrophila strain KA8414, 25-30 °C
[9] = Aeromonas hydrophila strain KA8416, 25-30 °C
[10] = Aeromonas hydrophila strain M 183, 25-30 °C
[11] = Pasteurella piscicida strain EH8304, 25-30 °C
[12] = Pasteurella piscicida strain EH8309, 25-30 °C
[13] = Pasteurella piscicida strain EH8312, 25-30 °C
[14] = Pasteurella piscicida strain NG8319, 25-30 °C
[15] = Vibrio anguillarum strain NA8340
[16] = Vibrio anguillarum strain NA8341
[17] = Vibrio anguillarum strain NA8346
[18] = Vibrio anguillarum strain NA8347
[19] = Vibrio anguillarum strain NH8410
[20] = Aeromonas hydrophila strain C 44, Mueller-Hinton agar, 25-30 °C, read-out: MIC (minimum growth-inhibition concentration)
[21] = Aeromonas hydrophila strain KA8301, Mueller-Hinton agar, 25-30 °C, read-out: MIC (minimum growth-inhibition concentration)
[22] = Aeromonas hydrophila strain KA8414, Mueller-Hinton agar, 25-30 °C, read-out: MIC (minimum growth-inhibition concentration)
[23] = Aeromonas hydrophila strain KA8416, Mueller-Hinton agar, 25-30 °C, read-out: MIC (minimum growth-inhibition concentration)
[24] = Aeromonas hydrophila strain M 183, Mueller-Hinton agar, 25-30 °C, read-out: MIC (minimum growth-inhibition concentration)
[25] = Pasteurella piscicida strain EH8304, Mueller-Hinton agar, 25-30 °C, read-out: MIC (minimum growth-inhibition concentration)
[26] = Pasteurella piscicida strain EH8309, Mueller-Hinton agar, 25-30 °C, read-out: MIC (minimum growth-inhibition concentration)
[27] = Pasteurella piscicida strain EH8312, Mueller-Hinton agar, 25-30 °C, read-out: MIC (minimum growth-inhibition concentration)
[28] = Pasteurella piscicida strain EH8313, Mueller-Hinton agar, 25-30 °C, read-out: MIC (minimum growth-inhibition concentration)
[29] = Pasteurella piscicida strain NG8319, Mueller-Hinton agar, 25-30 °C, read-out: MIC (minimum growth-inhibition concentration)
[30] = Pasteurella piscicida strain EH8313, 25-30 °C

| SMILES | MIC (Vibrio anguillarum; [1]) [µg/mL] | MIC (Vibrio anguillarum; [2]) [µg/mL] | MIC (Vibrio anguillarum; [3]) [µg/mL] | MIC (Vibrio anguillarum; [4]) [µg/mL] | MIC (Vibrio anguillarum; [5]) [µg/mL] | MIC (minimum growth-inhibition concentration) (Aeromonas hydrophila; [6]) [µg/mL] | MIC (minimum growth-inhibition concentration) (Aeromonas hydrophila; [7]) [µg/mL] | MIC (minimum growth-inhibition concentration) (Aeromonas hydrophila; [8]) [µg/mL] | MIC (minimum growth-inhibition concentration) (Aeromonas hydrophila; [9]) [µg/mL] | MIC (minimum growth-inhibition concentration) (Aeromonas hydrophila; [10]) [µg/mL] | MIC (minimum growth-inhibition concentration) (Pasteurella piscicida; [11]) [µg/mL] | MIC (minimum growth-inhibition concentration) (Pasteurella piscicida; [12]) [µg/mL] | MIC (minimum growth-inhibition concentration) (Pasteurella piscicida; [13]) [µg/mL] | MIC (minimum growth-inhibition concentration) (Pasteurella piscicida; [14]) [µg/mL] | MIC (minimum growth-inhibition concentration) (Vibrio anguillarum; [15]) [µg/mL] | MIC (minimum growth-inhibition concentration) (Vibrio anguillarum; [16]) [µg/mL] | MIC (minimum growth-inhibition concentration) (Vibrio anguillarum; [17]) [µg/mL] | MIC (minimum growth-inhibition concentration) (Vibrio anguillarum; [18]) [µg/mL] | MIC (minimum growth-inhibition concentration) (Vibrio anguillarum; [19]) [µg/mL] | MIC (Aeromonas hydrophila; [20]) [µg/mL] | other results |
| --- | --- | --- | --- | --- | --- | --- | --- | --- | --- | --- | --- | --- | --- | --- | --- | --- | --- | --- | --- | --- | --- |
| O=C(O)c1cn(C2CC2)c2cc(N3CCNCC3)c(F)cc2c1=O [Compound A, hydrochloride of 1-cyclopropyl-6-fluoro-1,4-dihydro-4-oxo-7-piperazino-quinoline-3-carboxylic acid] | < 0.025 | < 0.025 | < 0.025 | < 0.025 | < 0.025 |  |  |  |  |  |  |  |  |  |  |  |  |  |  |  | MIC (Aeromonas hydrophila; read-out: MIC (minimum growth-inhibition concentration), Aeromonas hydrophila strain C 44, Mueller-Hinton agar, 25-30 °C): < 0.025 µg/mL; MIC (Aeromonas hydrophila; read-out: MIC (minimum growth-inhibition concentration), Aeromonas hydrophila strain KA8301, Mueller-Hinton agar, 25-30 °C): < 0.025 µg/mL; MIC (Aeromonas hydrophila; read-out: MIC (minimum growth-inhibition concentration), Aeromonas hydrophila strain KA8414, Mueller-Hinton agar, 25-30 °C): < 0.025 µg/mL; MIC (Aeromonas hydrophila; read-out: MIC (minimum growth-inhibition concentration), Aeromonas hydrophila strain KA8416, Mueller-Hinton agar, 25-30 °C): < 0.025 µg/mL; MIC (Aeromonas hydrophila; read-out: MIC (minimum growth-inhibition concentration), Aeromonas hydrophila strain M 183, Mueller-Hinton agar, 25-30 °C): < 0.025 µg/mL; MIC (Pasteurella piscicida; read-out: MIC (minimum growth-inhibition concentration), Pasteurella piscicida strain EH8304, Mueller-Hinton agar, 25-30 °C): 0.05 µg/mL; MIC (Pasteurella piscicida; read-out: MIC (minimum growth-inhibition concentration), Pasteurella piscicida strain EH8309, Mueller-Hinton agar, 25-30 °C): < 0.025 µg/mL; MIC (Pasteurella piscicida; read-out: MIC (minimum growth-inhibition concentration), Pasteurella piscicida strain EH8312, Mueller-Hinton agar, 25-30 °C): 0.05 µg/mL; MIC (Pasteurella piscicida; read-out: MIC (minimum growth-inhibition concentration), Pasteurella piscicida strain NG8319, Mueller-Hinton agar, 25-30 °C): < 0.025 µg/mL |
| O=C(O)c1cn(C2CC2)c2cc(N3CCNCC3)c(F)cc2c1=O [Compound B, monohydrate of hydrochloride of 1-cyclopropyl-6-fluoro-1,4-dihydro-4-oxo-7-piperazino-quinoline-3-carboxylic acid] |  |  |  |  |  | < 0.0125 | < 0.0125 | < 0.0125 | < 0.0125 | < 0.0125 | 0.025 | < 0.0125 | 0.025 | 0.025 | 0.025 | 0.025 | 0.025 | 0.025 | 0.025 |  | MIC (Pasteurella piscicida; read-out: MIC (minimum growth-inhibition concentration), Pasteurella piscicida strain EH8313, Mueller-Hinton agar, 25-30 °C): 0.025 µg/mL |
| CN1CCN(c2cc3c(cc2F)c(=O)c(C(=O)O)cn3C2CC2)CC1 [Compound C, hydrochloride of 1-cyclopropyl-6-fluoro-1,4-dihydro-4-oxo-7-(4-methylpiperazino)quinoline-3-carboxylic acid] | < 0.025 | < 0.025 | < 0.025 | < 0.025 | < 0.025 |  |  |  |  |  |  |  |  |  |  |  |  |  |  | < 0.025 | MIC (Aeromonas hydrophila; [21]): < 0.025 µg/mL; MIC (Aeromonas hydrophila; [22]): < 0.025 µg/mL; MIC (Aeromonas hydrophila; [23]): < 0.025 µg/mL; MIC (Aeromonas hydrophila; [24]): < 0.025 µg/mL; MIC (Pasteurella piscicida; [25]): 0.05 µg/mL; MIC (Pasteurella piscicida; [26]): 0.05 µg/mL; MIC (Pasteurella piscicida; [27]): 0.05 µg/mL; MIC (Pasteurella piscicida; [28]): 0.05 µg/mL; MIC (Pasteurella piscicida; [29]): 0.05 µg/mL |
| CCN1CCN(c2cc3c(cc2F)c(=O)c(C(=O)O)cn3C2CC2)CC1 [Compound E, dihydrate of hydrochloride of 1-cyclopropyl-6-fluoro-1,4-dihydro-4-oxo-7-(4-ethylpiperazino)-quinoline-3-carboxylic acid] |  |  |  |  |  | < 0.025 | 0.05 | < 0.025 | < 0.025 | < 0.025 | 0.05 | 0.05 | 0.05 | 0.05 | 0.05 | 0.05 | 0.05 | 0.05 | 0.05 |  | MIC (minimum growth-inhibition concentration) (Pasteurella piscicida; [30]): 0.05 µg/mL |
| O=C(O)c1cn(C2CC2)c2cc(N3CCN(CCO)CC3)c(F)cc2c1=O [Compound F, hydrochloride of 1-cyclopropyl-6-fluoro-1,4-dihydro-4-oxo-7-(4-β-hydroxyethyl-piperazino)-quinoline-3-carboxylic acid] | 0.1 | 0.1 | 0.1 | 0.05 | 0.1 |  |  |  |  |  |  |  |  |  |  |  |  |  |  | < 0.025 | MIC (Aeromonas hydrophila; [21]): 0.05 µg/mL; MIC (Aeromonas hydrophila; [22]): < 0.025 µg/mL; MIC (Aeromonas hydrophila; [23]): < 0.025 µg/mL; MIC (Aeromonas hydrophila; [24]): < 0.025 µg/mL; MIC (Pasteurella piscicida; [25]): 0.1 µg/mL; MIC (Pasteurella piscicida; [26]): 0.1 µg/mL; MIC (Pasteurella piscicida; [27]): 0.1 µg/mL; MIC (Pasteurella piscicida; [28]): 0.1 µg/mL; MIC (Pasteurella piscicida; [29]): 0.1 µg/mL |
| CCN1CCN(c2cc3c(cc2F)c(=O)c(C(=O)O)cn3C2CC2)CC1 [Compound G, embonate of 1-cyclopropyl-6-fluoro-1,4-dihydro-4-oxo-7-(4-ethylpiperazino)-quinoline-3-carboxylic acid] |  |  |  |  |  | 0.05 (≈ 0.139 µM) | 0.05 (≈ 0.139 µM) | 0.05 (≈ 0.139 µM) | 0.05 (≈ 0.139 µM) | 0.05 (≈ 0.139 µM) | 0.1 (≈ 0.278 µM) | 0.1 (≈ 0.278 µM) | 0.05 (≈ 0.139 µM) | 0.01 (≈ 0.0278 µM) | 0.05 (≈ 0.139 µM) | 0.05 (≈ 0.139 µM) | 0.05 (≈ 0.139 µM) | 0.05 (≈ 0.139 µM) | 0.05 (≈ 0.139 µM) |  | MIC (minimum growth-inhibition concentration) (Pasteurella piscicida; [30]): 0.05 µg/mL (≈ 0.139 µM) |
| CCOC(=O)c1cn(C2CC2)c2cc(N3CCN(CC)CC3)c(F)cc2c1=O [Compound H, ethyl 1-cyclopropyl-6-fluoro-1,4-dihydro-4-oxo-7-(4-ethylpiperazino)-quinoline-3-carboxylate] | 25 (≈ 64.5 µM) | 25 (≈ 64.5 µM) | 12.5 (≈ 32.3 µM) | 12.5 (≈ 32.3 µM) | 12.5 (≈ 32.3 µM) |  |  |  |  |  |  |  |  |  |  |  |  |  |  | 50 (≈ 129 µM) | MIC (Aeromonas hydrophila; [21]): 12.5 µg/mL (≈ 32.3 µM); MIC (Aeromonas hydrophila; [22]): 25 µg/mL (≈ 64.5 µM); MIC (Aeromonas hydrophila; [23]): 12.5 µg/mL (≈ 32.3 µM); MIC (Aeromonas hydrophila; [24]): 12.5 µg/mL (≈ 32.3 µM); MIC (Pasteurella piscicida; [25]): 25 µg/mL (≈ 64.5 µM); MIC (Pasteurella piscicida; [26]): 25 µg/mL (≈ 64.5 µM); MIC (Pasteurella piscicida; [27]): 12.5 µg/mL (≈ 32.3 µM); MIC (Pasteurella piscicida; [28]): 12.5 µg/mL (≈ 32.3 µM); MIC (Pasteurella piscicida; [29]): 25 µg/mL (≈ 64.5 µM) |
